Source: ChEMBL document CHEMBL1201862, “PubChem BioAssay data set” (2004)
Calls of active or inactive are those of the source.

Tests used:
[1] = target: T1, Zinc finger protein mex-5 (Caenorhabditis elegans, UniProt Q9XUB2); test: potency of MEX-5 RNA-binding blockers – biochemical, C. elegans, fluorescence polarization, dose response (AID 1960)
T1 sequence (Q9XUB2 whole entry): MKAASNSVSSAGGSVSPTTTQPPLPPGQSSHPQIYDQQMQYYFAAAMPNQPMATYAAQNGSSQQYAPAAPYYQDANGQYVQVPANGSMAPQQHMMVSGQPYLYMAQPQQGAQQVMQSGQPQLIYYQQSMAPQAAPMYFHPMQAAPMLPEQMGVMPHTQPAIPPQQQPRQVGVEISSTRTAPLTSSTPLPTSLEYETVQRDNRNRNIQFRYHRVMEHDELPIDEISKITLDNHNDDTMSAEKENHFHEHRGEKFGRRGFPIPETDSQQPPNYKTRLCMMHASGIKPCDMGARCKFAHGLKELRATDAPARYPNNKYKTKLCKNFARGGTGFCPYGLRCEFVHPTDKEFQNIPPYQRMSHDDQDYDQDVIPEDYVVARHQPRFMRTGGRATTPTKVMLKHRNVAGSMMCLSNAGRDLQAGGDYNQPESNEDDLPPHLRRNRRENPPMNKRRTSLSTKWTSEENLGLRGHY

[2] = target: T2, RNA-binding protein pos-1 (Caenorhabditis elegans, UniProt G5EF15); test: disruptors of C. elegans POS-1 RNA interaction – biochemical, fluorescence polarization, dose response (AID 1964);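 also: purified POS-1 fused to maltose binding protein made in E. coli; potency of compounds blocking POS-1 binding to fluorescent RNA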
T2 sequence (G5EF15 whole entry): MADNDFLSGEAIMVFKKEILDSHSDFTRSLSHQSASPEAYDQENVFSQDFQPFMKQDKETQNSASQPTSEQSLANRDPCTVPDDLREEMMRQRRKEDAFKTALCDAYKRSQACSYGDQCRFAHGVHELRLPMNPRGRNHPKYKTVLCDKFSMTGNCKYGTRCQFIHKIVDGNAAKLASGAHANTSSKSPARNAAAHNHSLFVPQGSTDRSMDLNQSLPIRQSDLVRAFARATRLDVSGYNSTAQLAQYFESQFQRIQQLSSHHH

[3] = target: T3, Heat shock factor protein 1 (Mus musculus, UniProt P38532); test: enhancement of HSF1-driven luciferase signal – cell-based, NIH3T3, luminescence, dose retest, confirmation (AID 435004); assay type: functional;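 also: stress induced by proteasome inhibitor MG132 added 30 min after compound; luciferase reporter driven by HSF1 response element in NIH3T3 cells; actives raise luminescence as potentiators of the MG132 stress response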
T3 sequence (P38532 whole entry): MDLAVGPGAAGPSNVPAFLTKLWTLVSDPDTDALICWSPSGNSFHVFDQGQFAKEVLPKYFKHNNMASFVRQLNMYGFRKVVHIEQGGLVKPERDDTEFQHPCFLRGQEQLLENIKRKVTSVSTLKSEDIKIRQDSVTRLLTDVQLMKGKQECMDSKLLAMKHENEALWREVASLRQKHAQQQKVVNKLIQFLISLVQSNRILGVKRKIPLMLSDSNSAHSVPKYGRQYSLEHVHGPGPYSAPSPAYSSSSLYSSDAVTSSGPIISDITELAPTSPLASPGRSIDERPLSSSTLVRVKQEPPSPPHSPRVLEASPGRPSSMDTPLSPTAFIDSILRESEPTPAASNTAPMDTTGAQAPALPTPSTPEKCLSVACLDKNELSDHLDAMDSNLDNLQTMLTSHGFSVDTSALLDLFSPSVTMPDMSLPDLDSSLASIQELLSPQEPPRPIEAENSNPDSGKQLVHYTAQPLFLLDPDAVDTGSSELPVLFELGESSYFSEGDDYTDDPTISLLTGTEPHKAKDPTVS

[4] = target: T4, Corticotropin-releasing factor receptor 2/Corticotropin-releasing factor-binding protein (Homo sapiens, UniProt P24387+Q13324); test: activators of CRF receptor 2 with binding protein – uHTS hits, confirmation (AID 602473); assay type: functional; details: read-out: EC50_Mean
T4 sequence (Q13324 whole entry): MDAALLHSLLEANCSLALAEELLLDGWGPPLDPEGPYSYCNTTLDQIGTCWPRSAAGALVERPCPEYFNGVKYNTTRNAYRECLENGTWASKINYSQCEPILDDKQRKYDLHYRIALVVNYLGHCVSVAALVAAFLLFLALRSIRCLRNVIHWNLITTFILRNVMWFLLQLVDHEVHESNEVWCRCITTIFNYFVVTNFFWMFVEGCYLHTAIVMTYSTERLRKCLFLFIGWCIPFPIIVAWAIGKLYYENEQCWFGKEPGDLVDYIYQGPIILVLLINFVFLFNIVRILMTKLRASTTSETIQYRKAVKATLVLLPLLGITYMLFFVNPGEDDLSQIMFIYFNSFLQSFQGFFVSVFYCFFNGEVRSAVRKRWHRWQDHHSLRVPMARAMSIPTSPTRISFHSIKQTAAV
T4 sequence (P24387 whole entry): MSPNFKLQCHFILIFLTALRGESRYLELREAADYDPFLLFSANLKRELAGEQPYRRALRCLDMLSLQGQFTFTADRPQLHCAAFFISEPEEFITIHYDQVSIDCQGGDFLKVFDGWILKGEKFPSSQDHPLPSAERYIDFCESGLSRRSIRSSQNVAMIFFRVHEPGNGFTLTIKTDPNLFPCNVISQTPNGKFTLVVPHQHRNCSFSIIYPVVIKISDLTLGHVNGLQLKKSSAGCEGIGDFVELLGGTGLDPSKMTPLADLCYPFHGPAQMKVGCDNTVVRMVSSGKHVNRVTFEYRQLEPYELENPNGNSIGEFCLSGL

[5] = viability of PTEN-deleted HCT116 cells – cell-based, HCT116 PTEN knockout, dose response (AID 1047); assay type: functional;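 also: HCT116 colon tumor cells with PTEN knocked out; cells exposed to compound for 60 hours before readout; potency for loss of cell viability measured by luminescence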
[6] = viability of HCT116 lacking mutant beta-catenin – cell-based, human colon tumor, dose response (AID 1045); assay type: functional;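 also: HCT116 colon tumor cells with beta catenin knocked out; cells exposed to compound for 60 hours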
[7] = target: T5, Replicative DNA helicase DnaB (Mycobacterium tuberculosis, UniProt P9WMR3); test: DnaB intein splicing inhibitors, dose response, biochemical, cell-free fluorescence (AID 449749); assay type: functional
T5 sequence (P9WMR3 whole entry): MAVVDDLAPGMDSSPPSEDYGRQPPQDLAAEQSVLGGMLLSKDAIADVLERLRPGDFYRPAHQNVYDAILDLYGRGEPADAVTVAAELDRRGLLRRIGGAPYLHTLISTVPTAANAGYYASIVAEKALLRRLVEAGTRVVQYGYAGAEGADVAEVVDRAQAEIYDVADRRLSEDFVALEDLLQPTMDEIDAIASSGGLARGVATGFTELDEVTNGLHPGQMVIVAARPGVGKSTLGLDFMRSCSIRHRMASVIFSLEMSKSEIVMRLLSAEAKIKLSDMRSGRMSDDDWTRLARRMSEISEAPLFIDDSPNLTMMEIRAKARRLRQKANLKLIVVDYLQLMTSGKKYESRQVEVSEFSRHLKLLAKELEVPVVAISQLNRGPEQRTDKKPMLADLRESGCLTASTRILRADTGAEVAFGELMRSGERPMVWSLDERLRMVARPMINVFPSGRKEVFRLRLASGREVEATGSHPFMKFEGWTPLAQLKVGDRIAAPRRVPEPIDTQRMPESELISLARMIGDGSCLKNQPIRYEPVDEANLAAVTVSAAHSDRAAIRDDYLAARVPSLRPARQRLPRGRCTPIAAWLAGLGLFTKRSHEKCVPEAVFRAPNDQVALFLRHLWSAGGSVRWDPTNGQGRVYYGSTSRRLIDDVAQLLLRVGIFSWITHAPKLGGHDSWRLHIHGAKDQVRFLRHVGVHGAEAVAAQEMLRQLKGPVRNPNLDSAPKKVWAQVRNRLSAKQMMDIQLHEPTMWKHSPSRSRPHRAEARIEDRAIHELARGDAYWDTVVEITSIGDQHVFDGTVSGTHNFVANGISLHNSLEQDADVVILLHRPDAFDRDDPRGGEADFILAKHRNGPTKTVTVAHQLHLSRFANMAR

Protein RecA = target: T6, Protein RecA (Mycobacterium tuberculosis, UniProt P9WHJ3); test: Fluorescence Cell-Free Homogeneous Dose Retest to Identify Inhibitors of RecA-Intein Splicing Activity. [Related pubchem assays (depositor defined):AID2097, AID2223, AID489010, AID492950]; assay type: functional
T6 sequence (P9WHJ3 whole entry): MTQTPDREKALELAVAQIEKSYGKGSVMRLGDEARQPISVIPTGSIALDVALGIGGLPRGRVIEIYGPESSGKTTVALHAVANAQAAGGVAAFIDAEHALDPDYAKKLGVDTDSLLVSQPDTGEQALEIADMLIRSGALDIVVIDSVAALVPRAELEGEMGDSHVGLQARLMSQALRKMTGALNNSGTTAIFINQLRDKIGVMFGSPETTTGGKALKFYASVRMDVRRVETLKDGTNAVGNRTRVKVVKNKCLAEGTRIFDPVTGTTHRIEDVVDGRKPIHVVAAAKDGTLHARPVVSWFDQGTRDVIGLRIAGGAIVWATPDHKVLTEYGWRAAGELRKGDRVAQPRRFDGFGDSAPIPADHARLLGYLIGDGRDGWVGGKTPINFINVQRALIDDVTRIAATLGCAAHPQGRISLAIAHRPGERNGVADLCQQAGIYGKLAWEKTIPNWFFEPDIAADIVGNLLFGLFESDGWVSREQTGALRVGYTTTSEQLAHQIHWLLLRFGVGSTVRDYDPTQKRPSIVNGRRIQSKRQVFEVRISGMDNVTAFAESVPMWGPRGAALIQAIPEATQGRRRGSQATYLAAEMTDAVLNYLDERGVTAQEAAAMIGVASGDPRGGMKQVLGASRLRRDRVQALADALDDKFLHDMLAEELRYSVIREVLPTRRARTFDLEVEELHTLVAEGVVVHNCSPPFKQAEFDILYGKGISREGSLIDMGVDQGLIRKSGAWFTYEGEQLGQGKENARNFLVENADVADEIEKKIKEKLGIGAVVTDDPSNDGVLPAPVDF

Cytochrome P450 2C19 = Cytochrome P450 2C19 (Homo sapiens, UniProt P33261); test: Cytochrome panel assay with activity outcomes. Panel member name: p450-cyp2c19 Compounds with AC50 equal or less than 10 uM are considered active; assay type: functional; details: read-out: AC50
Cytochrome P450 2C19, sequence (P33261 whole entry): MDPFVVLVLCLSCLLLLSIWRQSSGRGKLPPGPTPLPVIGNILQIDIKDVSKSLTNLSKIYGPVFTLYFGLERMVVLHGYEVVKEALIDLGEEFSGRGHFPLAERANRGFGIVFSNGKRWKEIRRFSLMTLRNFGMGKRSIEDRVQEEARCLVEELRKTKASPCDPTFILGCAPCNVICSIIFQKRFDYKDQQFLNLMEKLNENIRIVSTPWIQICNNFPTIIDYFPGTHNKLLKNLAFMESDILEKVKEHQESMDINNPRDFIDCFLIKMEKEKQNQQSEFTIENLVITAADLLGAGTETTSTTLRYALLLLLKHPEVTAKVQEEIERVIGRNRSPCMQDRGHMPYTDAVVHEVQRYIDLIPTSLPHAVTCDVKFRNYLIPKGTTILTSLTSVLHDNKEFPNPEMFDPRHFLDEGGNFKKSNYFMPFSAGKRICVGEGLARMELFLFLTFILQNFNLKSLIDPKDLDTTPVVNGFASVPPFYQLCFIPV

[8] = Trypanosoma cruzi growth suppression in host cells – NIH3T3 host cells, beta-gal luminescence, confirmation (AID 2044); assay type: functional, cell-based;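 also: intracellular parasites grown in NIH/3T3 mouse fibroblasts as host cells; luminescent beta-galactosidase reporter signal from transgenic T. cruzi replicating inside host cells; inhibitors lower the luminescence signal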
[9] = NIH3T3 cell viability loss – ATP luminescence, mouse fibroblasts, counter-screen, dose response (AID 2010); assay type: functional, cell-based;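 also: cells exposed to compound for about 90 hours before reading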
Cytochrome P450 1A2 = target: T7, Cytochrome P450 1A2 (Homo sapiens, UniProt P05177);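 also: PubChem cytochrome P450 panel assay, CYP1A2 panel member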
T7 sequence (P05177 whole entry): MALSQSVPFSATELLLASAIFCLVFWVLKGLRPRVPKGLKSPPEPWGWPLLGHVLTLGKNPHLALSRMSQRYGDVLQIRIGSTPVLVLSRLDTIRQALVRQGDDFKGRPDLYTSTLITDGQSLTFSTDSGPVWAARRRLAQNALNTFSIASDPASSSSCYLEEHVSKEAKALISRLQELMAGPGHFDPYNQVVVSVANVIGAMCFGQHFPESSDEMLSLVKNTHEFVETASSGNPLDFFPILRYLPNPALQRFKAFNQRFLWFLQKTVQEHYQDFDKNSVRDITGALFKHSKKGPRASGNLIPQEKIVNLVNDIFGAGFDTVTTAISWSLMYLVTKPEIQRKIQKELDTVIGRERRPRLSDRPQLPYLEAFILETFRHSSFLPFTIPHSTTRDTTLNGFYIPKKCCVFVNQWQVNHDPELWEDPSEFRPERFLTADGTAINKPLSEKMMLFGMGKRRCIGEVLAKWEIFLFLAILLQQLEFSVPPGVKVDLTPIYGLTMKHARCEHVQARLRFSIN

Cytochrome P450 2D6 = Cytochrome P450 2D6 (Homo sapiens, UniProt P10635);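 also: CYP2D6 member of a cytochrome P450 panel assay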
Cytochrome P450 2D6, sequence (P10635 whole entry): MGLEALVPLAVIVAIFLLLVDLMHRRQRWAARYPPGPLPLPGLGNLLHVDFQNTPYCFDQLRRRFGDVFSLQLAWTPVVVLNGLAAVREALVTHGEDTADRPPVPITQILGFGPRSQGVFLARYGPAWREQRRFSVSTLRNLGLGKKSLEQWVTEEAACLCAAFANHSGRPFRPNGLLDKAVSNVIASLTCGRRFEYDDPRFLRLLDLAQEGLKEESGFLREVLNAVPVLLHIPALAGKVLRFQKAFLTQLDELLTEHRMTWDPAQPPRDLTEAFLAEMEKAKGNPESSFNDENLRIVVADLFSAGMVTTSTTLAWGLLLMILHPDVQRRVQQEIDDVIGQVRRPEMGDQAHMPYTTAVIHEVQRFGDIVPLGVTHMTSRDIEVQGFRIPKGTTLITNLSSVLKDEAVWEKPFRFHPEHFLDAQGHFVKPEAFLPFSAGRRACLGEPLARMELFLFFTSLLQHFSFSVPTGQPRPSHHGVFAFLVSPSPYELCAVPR

[10] = Luminescence Cell-Based Dose Retest to Confirm Inhibitors of Cancer Stem Cells. [Related pubchem assays (depositor defined):AID2717, AID2721]; assay type: functional; details: Homo sapiens

## CC1=CC(C)(C)N2C(=O)C3(C(C#N)=C(N)OC4=C3C(=O)CC(C)(C)C4)c3cccc1c32 (configuration not stated)
[1]
  EC50: > 300 µM (not active)
[2]
  EC50: > 300 µM (not active)

## CN(C)c1ccc(N/C=C2/C(=O)NC(=O)N(CCC3=CCCCC3)C2=O)cc1
[1]
  EC50: > 300 µM (not active)
[2]
  EC50: > 300 µM (not active)

## CCOC(=O)C1=NN(C(=O)c2ccccc2)C(O)(c2ccc(C)cc2)C1 (configuration not stated)
[3]
  EC50: > 260 µM (inactive)
[4]
  EC50: 13.5 µM (active)

## COC(=O)C1=C(C)N(c2ccccc2)/C(=C/c2ccco2)C1=O
[1]
  EC50: 5.06 µM (active)
[2]
  EC50: 99 µM (active)

## CCOC(=O)C1=C(N)Oc2c(c(O)nc3ccccc23)C1c1ccccc1 (configuration not stated)
[5]
  EC50: 53.5 µM (active)
[6]
  EC50: 94.3 µM (active)

## CCOC(=O)c1nn(-c2ccc(C)cc2)c2nc(Nc3ccccc3)cc(=O)n12
[1]
  EC50: > 300 µM (not active)
[2]
  EC50: 78.2 µM (active)

## O=C(NCc1ccccc1)C1Nc2ccc(OC(F)(F)F)cc2C2C=CCC12 (configuration not stated)
[1]
  EC50: > 300 µM (not active)
[2]
  EC50: > 300 µM (not active)

## COc1cccc(-n2nc(C#N)c(Cl)cc2=O)c1
[7]
  AC50: 2.49 µM (active)
[3]
  EC50: 10.7 µM (active)
Protein RecA
  EC50: 4.38 µM (active)

## FC(F)(F)c1nnc(-c2ccccc2)nc1Sc1ccccc1
[7]
  AC50: 19.3 µM (active)
[3]
  EC50: 4.22 µM (inconclusive)
Cytochrome P450 2C19
  AC50: 0.00355 µM (inconclusive)
[5]
  EC50: 18.7 µM (active)
[6]
  EC50: 17.3 µM (active)
Protein RecA
  EC50: 9.56 µM (active)

## Cc1ccc(-c2nc(NC(=O)c3ccc(S(=O)(=O)N(CCC#N)CCC#N)cc3)sc2-c2ccccc2)cc1
[8]
  EC50: 2.02 µM (active)
[5]
  EC50: 17 µM (active)
[9]
  EC50: > 60 µM (not active)
[6]
  EC50: 17.3 µM (active)

## O=P(Nc1ccccc1)(Nc1ccccc1)Oc1cccc(Cl)c1
Cytochrome P450 1A2
  AC50: 15.8 µM (inconclusive)
Cytochrome P450 2D6
  AC50: 15.8 µM (inconclusive)
[5]
  EC50: 134 µM (active)
[6]
  EC50: 239 µM (active)

## Cc1nnc(S/C(=C/c2ccc(-c3cc(Cl)ccc3C)o2)C(=O)O)[nH]1
[1]
  EC50: 31 µM (active)
[2]
  EC50: 38.4 µM (active)

## Cc1c(C(=O)O)cccc1-n1c(C)cc(/C=N/NC(=O)c2cc3ccccc3o2)c1C
[1]
  EC50: > 300 µM (not active)
[2]
  EC50: > 300 µM (not active)

## Clc1ccc(CO/N=C/c2c(-c3ccccc3)nc3n2CCS3)c(Cl)c1
[10]
  AC50: 2.22 µM (active)
[3]
  EC50: > 260 µM (inactive)
